≈ marks a conversion by molar mass, not a printed value. Read-outs that look alike come from different tables or passages of the source.
How the values were obtained:
[1] = test system: M. tuberculosis standard strain Mtb H37Rv; test: MIC determination against mycobacteria (resazurin, Middlebrook 7H9); assay type: cell-based, Mycobacterium tuberculosis; settings: read-out: Mtb H37Rv MIC (B)
[2] = test system: M. tuberculosis clinical isolates; test: MIC against clinical strains (BACTEC MGIT 960 System); assay type: cell-based; settings: Mycobacterium tuberculosis
E. coli K12 tolC::Tn10 = test: General antimicrobial activity assay (CLSI broth microdilution); assay type: cell-based, Escherichia coli
Method: (§1) Whole-cell antimicrobial activity was determined by broth microdilution using the Clinical and Laboratory Standards Institute (CLSI) recommended procedure, Document M7-A7, “Methods for Dilution Susceptibility Tests for Bacteria that Grow Aerobically”.

E. coli K12 = test: as above; assay type: cell-based, Escherichia coli
Method: as §1

A. baumannii ATCC 17978 = test: as above; assay type: cell-based, Acinetobacter baumannii
Method: as §1

P. aeruginosa PA01 = test: as above; assay type: cell-based, Pseudomonas aeruginosa
Method: as §1

HepG2 cells = settings: for Selectivity Index (A/B): HepG2 Tox50 (A) / Mtb H37Rv MIC (B)
Mtb LeuRS = Mtb LeuRS (Mycobacterium tuberculosis, UniProt P9WFV1); test: biochemical; parameters: species or system M. tuberculosis
Sequence of Mtb LeuRS (P9WFV1 whole entry): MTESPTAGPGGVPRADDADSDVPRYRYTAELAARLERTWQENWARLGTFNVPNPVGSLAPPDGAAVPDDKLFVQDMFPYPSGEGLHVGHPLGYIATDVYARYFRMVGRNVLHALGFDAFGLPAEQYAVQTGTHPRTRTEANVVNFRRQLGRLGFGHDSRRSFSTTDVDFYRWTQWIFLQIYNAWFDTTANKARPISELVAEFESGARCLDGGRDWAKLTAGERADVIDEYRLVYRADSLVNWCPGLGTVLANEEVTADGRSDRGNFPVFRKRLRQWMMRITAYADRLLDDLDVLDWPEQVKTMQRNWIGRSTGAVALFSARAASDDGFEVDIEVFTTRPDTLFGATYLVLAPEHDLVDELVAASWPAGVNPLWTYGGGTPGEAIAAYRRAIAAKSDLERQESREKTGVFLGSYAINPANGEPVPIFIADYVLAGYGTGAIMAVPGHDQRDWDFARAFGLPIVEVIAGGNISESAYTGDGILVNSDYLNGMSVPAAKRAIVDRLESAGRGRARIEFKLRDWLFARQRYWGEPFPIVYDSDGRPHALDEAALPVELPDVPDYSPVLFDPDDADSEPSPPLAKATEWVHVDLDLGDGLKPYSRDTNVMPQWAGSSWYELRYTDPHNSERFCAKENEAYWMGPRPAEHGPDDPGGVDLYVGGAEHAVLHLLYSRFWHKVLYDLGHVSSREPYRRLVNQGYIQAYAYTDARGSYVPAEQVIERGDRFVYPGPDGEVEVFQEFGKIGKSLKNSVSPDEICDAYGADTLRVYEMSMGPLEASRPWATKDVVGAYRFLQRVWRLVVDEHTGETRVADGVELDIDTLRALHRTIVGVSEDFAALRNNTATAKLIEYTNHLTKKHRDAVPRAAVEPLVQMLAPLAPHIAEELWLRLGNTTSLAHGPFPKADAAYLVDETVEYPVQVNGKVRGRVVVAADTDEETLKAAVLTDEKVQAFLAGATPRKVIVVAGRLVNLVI

[3] = Mycobacterium tuberculosis, H37RV

In the case of Cl.NC[C@H]1OB2OCCOc3ccc(Br)c1c32 [Example 2, (S)-(3-bromo-7,8-dihydro-2H-1,6,9-trioxa-9a-borabenzo[cd]azulen-2-yl)methanamine hydrochloride], the MIC [1, 3] is reported as < 0.1 µM, the MIC ([1]; hydrochloride) is reported as 0.07 µM and the MIC ([2]; for all of but 1 of the 40 clinical isolate strains tested) is reported as < 1 µM. It also gave an MIC ([2]; read-out: measured MIC (breakdown), for 1 strain (EXAMPLE 2 and EXAMPLE 4), highest MIC) of 0.16 µM, an MIC ([2]; read-out: measured MIC (breakdown), for 1 strain of 40 clinical isolates (EXAMPLE 2)) of 0.04 µM and an MIC ([2]; read-out: measured MIC (breakdown), for 40 strains (EXAMPLE 2 and EXAMPLE 4)) of 0.08 µM. It also gave an MIC ([2]; strain 137, sensitive clinical isolate) of 0.08 µM, an MIC ([2]; strain 169, sensitive clinical isolate) of 0.08 µM and an MIC ([2]; strain 192, sensitive clinical isolate) of 0.08 µM. The MIC ([2]; strain 199, sensitive clinical isolate) was 0.08 µM, the MIC ([2]; strain 206, sensitive clinical isolate) was 0.08 µM and the MIC ([2]; strain 207, sensitive clinical isolate) was 0.08 µM. The MIC ([2]; strain 208, sensitive clinical isolate) was 0.08 µM, the MIC ([2]; strain 223, sensitive clinical isolate) was 0.08 µM and the MIC ([2]; strain 231, sensitive clinical isolate) was 0.08 µM. For the same molecule, the MIC ([2]; strain 237, sensitive clinical isolate) was 0.08 µM, the MIC ([2]; strain 247, sensitive clinical isolate) was 0.08 µM and the MIC ([2]; strain 248, sensitive clinical isolate) was 0.08 µM. For the same molecule, the MIC ([2]; strain 249, sensitive clinical isolate) was 0.08 µM, the MIC ([2]; strain 255, sensitive clinical isolate) was 0.08 µM and the MIC ([2]; strain 261, sensitive clinical isolate) was 0.08 µM. The MIC ([2]; strain 265, sensitive clinical isolate) was 0.08 µM, the MIC ([2]; strain 269, sensitive clinical isolate) was 0.08 µM and the MIC ([2]; strain 281, sensitive clinical isolate) was 0.08 µM. The MIC ([2]; strain 292, sensitive clinical isolate) was 0.08 µM, the MIC ([2]; strain 314, sensitive clinical isolate) was 0.08 µM and the MIC ([2]; strain 316, sensitive clinical isolate) was 0.08 µM. It also gave an MIC ([2]; strain 317, sensitive clinical isolate) of 0.08 µM, an MIC ([2]; strain 322, sensitive clinical isolate) of 0.08 µM and an MIC ([2]; strain 323, sensitive clinical isolate) of 0.08 µM. It also gave an MIC ([2]; strain 324, sensitive clinical isolate) of 0.08 µM, an MIC ([2]; strain 326, sensitive clinical isolate) of 0.08 µM and an MIC ([2]; strain 327, sensitive clinical isolate) of 0.08 µM. For the same molecule, the MIC ([2]; strain 328, sensitive clinical isolate) was 0.08 µM, the MIC ([2]; strain 329, sensitive clinical isolate) was 0.08 µM and the MIC ([2]; strain 332, sensitive clinical isolate) was 0.08 µM. For the same molecule, the MIC ([2]; strain 333, sensitive clinical isolate) was 0.08 µM, the MIC ([2]; strain 358, sensitive clinical isolate) was 0.08 µM and the “MIC: E. coli K12 tolC::Tn10” value (E. coli K12 tolC::Tn10) was 64 µg/mL. For the same molecule, the “MIC: E. coli K12” value (E. coli K12) was 64 µg/mL, the “MIC: A. baumannii ATCC 17978” value (A. baumannii ATCC 17978) was 64 µg/mL and the “MIC: P. aeruginosa PA01” value (P. aeruginosa PA01) was 64 µg/mL. For the same molecule, the “HepG2 cell 48 h Tox50 (A)” value (HepG2 cells) was 292.4 µM and the “Selectivity Index (A/B)” value (HepG2 cells) was 4177.

With C[C@]1(CO)COc2ccc(Br)c3c2B(OC3CN)O1 (stereo partly drawn) [Example 17, ((2S, 8S, or 2R, 8R)-2-(aminomethyl)-3-bromo-8-methyl-7,8-dihydro-2H-1,6,9-trioxa-9a-borabenzo[cd]azulen-8-yl)methanol] the MIC [1, 3] was 0.925 µM (≈ 0.303 µg/mL), the IC50 (Mtb LeuRS) was 1970 nM and the “Selectivity Index (A/B)” value (HepG2 cells) was >50. For the same molecule, the “HepG2 cell 48 h Tox50 (A)” value (HepG2 cells; human) was >50 µM.

In the case of CC1(C)COc2c(Cl)ccc3c2B(O[C@@H]3CN)O1 [Example C13-Cl, reference compound], the MIC [1, 3] is reported as 5 µM (≈ 1.34 µg/mL), the IC50 (Mtb LeuRS) is reported as 2160 nM and the “Selectivity Index (A/B)” value (HepG2 cells) is reported as >10. For the same molecule, the “HepG2 cell 48 h Tox50 (A)” value (HepG2 cells; human) was >50 µM.
